From patent publication US10596127B2, “Composition for reducing the frequency of urination, method of making and use thereof” (WELLESLEY PHARMACEUTICALS, LLC, priority 2013, dated 2020)

Assays:
[1] = system: IL-6 secretion by normal human bladder smooth muscle cells; experiment: IL-6 ELISA of normal human bladder smooth muscle cell supernatants; format: cell-based; details: for IL-6 (pg/ml) Subject 2: LPS alone 4383; for IL-6 (pg/ml) Subject 1: LPS alone 4838, mean of duplicates
[2] = adult humans; cited from earlier work
[3] = system: IL-6 secretion by normal human bladder smooth muscle cells; experiment: IL-6 ELISA of normal human bladder smooth muscle cell supernatants; format: cell-based
Experimental: (§1) Culture supernatants were subjected to cytokine-specific ELISA to determine IL-1β, IL-6 and TNF-α responses in cultures of macrophages treated with analgesic, LPS alone or a combination of LPS and analgesic. The assays were performed on Nunc MaxiSorp Immunoplates (Nunc) coated overnight with 100 μl of anti-mouse IL-6, TNF-α mAbs (BD Biosciences) or IL-1β mAb (R&D Systems) in 0.1 M sodium bicarbonate buffer (pH 9.5). After two washes with PBS (200 μl per well), 200 μl of PBS 3% BSA were added in each well (blocking) and the plates incubated for 2 hours at room temperature. Plates were washed again two times by addition of 200 μl per well, 100 μl of cytokine standards and serial dilutions of culture supernatants were added in duplicate and the plates were incubated overnight at 4° C. Finally, the plates were washed twice and incubated with 100 μl of secondary biotinylated anti-mouse IL-6, TNFα mAbs (BD Biosciences) or IL-1β (R&D Systems) followed by peroxidase-labelled goat anti-biotin mAb (Vector Laboratories). The colorimetric reaction was developed by the addition of 2,2′-azino-bis(3)-ethylbenzylthiazoline-6-sulfonic acid (ABTS) substrate and H2O2 (Sigma) and the absorbance measured at 415 nm with a Victor® V multilabel plate reader (PerkinElmer).
(§2) Normal human bladder smooth muscle cells were isolated by enzymatic digestion from macroscopically normal pieces of human bladder. Cells were expended in vitro by culture at 37° C. in a 5% CO2 atmosphere in RPMI 1640 supplemented with 10% fetal bovine serum, 15 mM HEPES, 2 mM L-glutamine, 100 U/ml penicillin, and […] of streptomycin and passage once a week by treatment with trypsin to detach cells followed by reseeding in a new culture flask. The first week of culture, the culture medium was supplemented with 0.5 ng/ml epidermal growth factor, 2 ng/ml fibroblast growth factor, and 5 μg/ml insulin.
(§3) Bladder smooth muscle cells trypsinized and seeded in microculture plates at a cell density of 3×10^4 cells per well in 100 μl were treated with analgesic solutions (50 μl/well) either alone or together carbachol (10-Molar, 50 μl/well), as an example of non-inflammatory stimuli, or lipopolysaccharide (LPS) of Salmonella typhimurium (1 μg/ml, 50 μl/well), as an example of […] stimuli. When no other effectors were added to the cells, 50 μl of RPMI 1640 without fetal bovine serum were added to the wells to adjust the final volume to 200 μl.
(§4) After 24 hours of culture, 150 μl of culture supernatants were collected, spun down for 2 min at 8,000 rpm at 4° C. to remove cells and debris and stored at −70° C. for analysis of Prostaglandin E2 (PGE2) responses by ELISA. Cells were fixed, permeabilized and blocked for detection of COX2 using a fluorogenic substrate. In selected experiment cells were stimulated 12 hours in vitro for analysis of COX2, PGE2 and cytokine responses.
(§5) COX2 and PGE2 responses were analyzed as described in Example 3. Cytokine responses were analyzed as described in Example 2.

[4] = system: expression of co-stimulatory molecules by Raw 264 macrophage cells; experiment: Flow cytometry of co-stimulatory molecules CD40 and CD80 on macrophages treated with analgesic, with or without LPS; format: cell-based, Murine
Experimental: Murine RAW264.7 or J774 macrophage cells (obtained from ATCC) were used in this study. Cells were maintained in a culture medium containing RPMI 1640 supplemented with 10% fetal bovine serum (FBS), 15 mM HEPES, 2 mM L-glutamine, 100 U/ml penicillin, and 100 μg/ml of streptomycin. Cells were cultured at 37° C. in a 5% CO2 atmosphere and split (passages) once a week.
RAW264.7 macrophage cells were seeded in 96-well plates at a cell density of 1.5×10^5 cells per well in 100 μl of the culture medium. […] Briefly, the analgesics were dissolved in FBS-free culture medium (i.e., RPMI 1640 supplemented with 15 mM HEPES, 2 mM L-glutamine, 100 U/ml penicillin, and 100 μg/ml of streptomycin), and diluted to desired concentrations by serial dilution with the same medium. For cells treated with analgesic in the absence of LPS, 50 μl of analgesic solution and 50 μl of FBS-free culture medium were added to each well. For cells treated with analgesic in the presence of LPS, 50 μl of analgesic solution and 50 μl of LPS (from Salmonella typhimurium) in FBS-free culture medium were added to each well. All conditions were tested in duplicates.
After 24 or 48 hours of culture, 150 μl of culture supernatants were collected, spun down for 2 min at 8,000 rpm at 4° C. to remove cells and debris and stored at −70° C. for analysis of cytokine responses by ELISA. The cells were collected and washed by centrifugation (5 min at 1,500 rpm at 4° C.) in 500 μl of Phosphate buffer (PBS). Half of the cells were then snap frozen in liquid nitrogen and stored at −70° C. The remaining cells were stained with fluorescent monoclonal antibodies and analyzed by flow cytometry.
For flow cytometry analysis, macrophages were diluted in 100 μl of FACS buffer (phosphate buffered saline (PBS) with 2% bovine serum albumin (BSA) and 0.01% NaN3) and stained 30 min at 4° C. by addition of FITC-conjugated anti-CD40, PE-conjugated anti-CD80, PE-conjugated anti-CD86 antibody, anti MHC class II (I-A^d) PE (BD Bioscience). Cells were then washed by centrifugation (5 min at 1,500 rpm at 4° C.) in 300 μl of FACS buffer. After a second wash, cells were re-suspended in 200 μl of FACS buffer and the percentage of cells expressing a given marker (single positive), or a combination of markers (double positive) were analyzed with the aid of an Accuri C6 flow cytometer (BD Biosciences).

[5] = system: TNFα secretion by normal human bladder smooth muscle cells; experiment: TNFα ELISA of normal human bladder smooth muscle cell supernatants; format: cell-based
Experimental: as §1, §2, §3, §4, §5

[6] = LPS (10 μg/ml) plus analgesic 5 μM
[7] = LPS (10 μg/ml) plus analgesic 50 μM
[8] = LPS-induced responses: analgesic at either 5 μM or 50 μM

Q: With `CC(=O)Nc1ccc(O)cc1` [Acetaminophen, N-acetyl-para-aminophenol] as the molecule, how does the “IL-6 (pg/ml) Subject 2” value [1, 6] read?
A: 2308 pg/mL

Q: And the “IL-6 (pg/ml) Subject 1” value [1, 6]?
A: 2012 pg/mL

Q: And the “IL-6 (pg/ml) Subject 2” value [1, 7]?
A: 1983 pg/mL

Q: What about the “IL-6 (pg/ml) Subject 1” value [1, 7] of the same molecule?
A: 2018 pg/mL

Q: And the “Maximum serum levels after oral therapeutic doses” value [2]?
A: 11 to 18 mg/L

Q: What about the “IL-6 (pg/ml) Subject 1” value ([3]; Carbachol 10^−3 M plus analgesic 50 μM, carbachol alone 232, unstimulated <5, mean of duplicates) of the same molecule?
A: 119 pg/mL

Q: And the “IL-6 (pg/ml) Subject 2” value ([3]; Carbachol 10^−3 M plus analgesic 50 μM, carbachol alone 278, unstimulated <5)?
A: 135 pg/mL

Q: And the “effect on the effect of carbachol and LPS on IL-6 responses” value [3, 8]?
A: suppress

Q: And the “effect on expression of the co-stimulatory molecules at the highest dose” value ([4]; 5 × 10^6 nM)?
A: enhance

Q: What about the “effect on basal expression of co-stimulatory molecules CD40 and CD80 by macrophages” value ([4]; 5 × 10^5, 5 × 10^4, 5 × 10^3, 5 × 10^2, 50 and 5 nM) of the same molecule?
A: inhibit

Q: And the “% Positive CD40+CD80+” value ([4]; analgesic alone, 5 nM, negative control 20.6)?
A: 7.5%

Q: What about the “% Positive CD40+CD80+” value ([4]; analgesic alone, 50 nM, negative control 20.6) of the same molecule?
A: 9.5%

Q: What about the “% Positive CD40+CD80+” value ([4]; analgesic alone, 500 nM, negative control 20.6) of the same molecule?
A: 8.3%

Q: And the “% Positive CD40+CD80+” value ([4]; analgesic alone, 5 × 10^3 nM, negative control 20.6)?
A: 9.8%

Q: And the “% Positive CD40+CD80+” value ([4]; analgesic alone, 5 × 10^4 nM, negative control 20.6)?
A: 12%

Q: What about the “% Positive CD40+CD80+” value ([4]; analgesic alone, 5 × 10^5 nM, negative control 20.6) of the same molecule?
A: 18%

Q: What about the “% Positive CD40+CD80+” value ([4]; analgesic alone, 5 × 10^6 nM, negative control 20.6) of the same molecule?
A: 63%

Q: And the “% Positive CD40+CD80+” value ([4]; analgesic plus LPS, analgesic 5 nM, LPS 5 ng/ml alone 77.8)?
A: 62.1%

Q: What about the “% Positive CD40+CD80+” value ([4]; analgesic plus LPS, analgesic 50 nM, LPS 5 ng/ml alone 77.8) of the same molecule?
A: 66.2%

Q: What about the “% Positive CD40+CD80+” value ([4]; analgesic plus LPS, analgesic 500 nM, LPS 5 ng/ml alone 77.8) of the same molecule?
A: 66.8%

Q: And the “% Positive CD40+CD80+” value ([4]; analgesic plus LPS, analgesic 5 × 10^3 nM, LPS 5 ng/ml alone 77.8)?
A: 68.8%

Q: And the “% Positive CD40+CD80+” value ([4]; analgesic plus LPS, analgesic 5 × 10^4 nM, LPS 5 ng/ml alone 77.8)?
A: 72.4%

Q: What about the “% Positive CD40+CD80+” value ([4]; analgesic plus LPS, analgesic 5 × 10^5 nM, LPS 5 ng/ml alone 77.8) of the same molecule?
A: 82.7%

Q: And the “% Positive CD40+CD80+” value ([4]; analgesic plus LPS, analgesic 5 × 10^6 nM, LPS 5 ng/ml alone 77.8)?
A: 95.1%

Q: And the “TNFα (pg/ml) Subject 2” value ([5]; Carbachol 10^−3 M plus analgesic 50 μM, carbachol alone 286, unstimulated <5)?
A: 164 pg/mL

Q: And the “TNFα (pg/ml) Subject 1” value ([5]; Carbachol 10^−3 M plus analgesic 50 μM, carbachol alone 350, unstimulated <5, mean of duplicates)?
A: 138 pg/mL

Q: And the “effect on the effect of carbachol and LPS on TNFα responses” value [5, 8]?
A: suppress
